Assay [1] concerns L-type calcium channels (Cav1.3) of SNc dopaminergic neurons. Nature of the assay: Whole cell patch clamp recordings of dopaminergic neurons in brain slices (Example 2). To be noted: for inhibition of L-type calcium channels: dihydropyridine antagonists, brain slice, FIG. 1 and FIG. 4. The class given is cell-based, mouse.
Assay [2] relates to SNc DA neurons. Nature of the assay: Mito-roGFP imaging of mitochondrial oxidant stress after chronic drug treatment by s.c. osmotic minipumps. The class given is in vivo, mice. To be noted: for dose dependence of the effect of chronic administration on mitochondrial oxidant stress: 1 week via s.c. osmotic minipump, isradipine 0.03, 0.3, 3 mg/kg/day, rasagiline 1 and 3 mg/kg/day, FIG. 8; for mitochondrial oxidant stress in SNc dopaminergic neurons, chronic treatment: chronic (1 week) s.c. osmotic minipumps, FIG. 7d.

For assay [3], the system named is SNc dopaminergic neurons. To be noted: brain slice taken following rasagiline treatment; FIG. 6.
Assay [4] concerns SNc dopaminergic neurons. To be noted: Fluo4 and 2PLSM; FIG. 6.
In assay [5] the test system is SNc DA neurons. To be noted: acute treatment at the time of measurement; FIG. 7c-d.

Entries after “also recorded” stand apart in the source; their conditions may differ.

On to `NC1=N[C@H](O)[C@H]2[C@H]3O[C@]4(O)O[C@@H]([C@@H](O)[C@@]2(N1)[C@@H]4O)[C@]3(O)CO` [tetrodotoxin], for which, in assay [1], the “spikes and underlying oscillations that drive pacemaking” value was “eliminates spikes but not the underlying oscillations”.
Regarding `COC(=O)C1=C(C)NC(C)=C(C(=O)OC(C)C)C1c1cccc2nonc12` (stereo not drawn) [isradipine, 3,5-pyridinedicarboxylic acid, 4-(4-benzofurazanyl)-1,4-dihydro-2,6-dimethyl-, methyl 1-methylethyl ester], the “pacemaking during sustained blockade of Cav1.3 channels” value in assay [1] (adult SNc dopaminergic neuron, before, during and after application, FIG. 4) was “restores pacemaking and dopaminergic neuron cell function through an altered pacemaking mechanism”. Moreover, the “inhibition of L-type calcium channels” value in assay [1] is “inhibited”. Moreover, in assay [2], the “dose dependence of the effect of chronic administration on mitochondrial oxidant stress” value was “dose-dependent” and the “mitochondrial oxidant stress in SNc dopaminergic neurons, chronic treatment” value is listed as “diminished”.
On to `COCCOC(=O)C1=C(C)NC(C)=C(C(=O)OC(C)C)C1c1cccc([N+](=O)[O-])c1` (stereo not drawn) [nimodipine, isopropyl 2-methoxyethyl 1,4-dihydro-2,6-dimethyl-4-(m-nitrophenyl)-3,5-pyridinedicarboxylate], for which the “inhibition of L-type calcium channels” value in assay [1] is given as “inhibited”. The “autonomous pacemaking of dopaminergic neurons” value in assay [1] (tissue slice from an adult, FIGS. 1a-d) is given as “inhibits autonomous pacemaking”.
Consider `C#CCN[C@@H]1CCc2ccccc21` [rasagiline], for which, in assay [2], the “dose dependence of the effect of chronic administration on mitochondrial oxidant stress” value is given as “dose-dependent” and the “mitochondrial oxidant stress in SNc dopaminergic neurons, chronic treatment” value was “diminished; also recorded: further lowers stress”. The “pacemaking of SNc dopaminergic neurons” value in assay [3] is “no effect on pacemaking”. Besides, in assay [4], the “calcium entry linked to pacemaking (intracellular calcium oscillations)” value was “no effect”. Besides, in assay [5], the “mitochondrial oxidant stress in SNc dopaminergic neurons, acute treatment” value is given as “lowers mitochondrial oxidant stress”.

For the origin of these results see patent publication US9463186B2, “Treatment for dopaminergic disorders” (Northwestern University, priority 2013, dated 2016).
